Assay results from patent US20100160454A1, “ANTIMICROBIAL AGENTS, COMPOSITIONS AND PRODUCTS CONTAINING THE SAME, AND METHODS OF USING THE COMPOSITIONS AND PRODUCTS” (Eastman Chemical Company, priority 2008, published 2010).

Columns and labels:
Experiment in all cases: Microbiological challenge testing in BPW broth, graded subculture counts
Format in all cases: cell-based
[1] = system: Bacillus subtilis Wild type
Summary of the method: (§1)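 Bacteria were grown in TSB with 1% dextrose at 35 °C ± 2 °C for at least 96 h, then added to BPW containing 1% dextrose plus test material to give 10^5 to 10^6 CFU/mL at time zero. Broth-alone controls were run in triplicate. Counts were made by spread plating on PCA.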

[2] = system: Staphylococcus epidermidis ATCC 12228
Summary of the method: as §1

[3] = system: Pseudomonas aeruginosa Wild type; conditions: P. aeruginosa
Summary of the method: as §1

[4] = system: Proteus vulgaris Wild type
Summary of the method: as §1

[5] = system: Candida albicans Wild type; conditions: C. albicans
Summary of the method: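 Wild-type C. albicans grown in TSB with 1% dextrose at 22 °C, then adjusted by turbidity and hemocytometer to a 10^8 CFU/mL challenge confirmed on SABD plates. Challenge added to BPW broth containing 1% dextrose, giving 10^5 to 10^6 CFU/mL at time zero; controls in triplicate. Counts by serial dilution and spread-plating after at least 48 h incubation.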

SMILES: O=C([O-])CN(CCN(CC(=O)[O-])CC(=O)O)CC(=O)O.[Na+].[Na+] [EDTA, Na2EDTA]
- B. subtillis growth grade, 3 day ([1]; 0.5% weight/volume): 4 (1000 to 10,000 colonies countable (thus 10,000 CFU/mL to 100,000 CFU/mL))
- B. subtillis growth grade, 14 day ([1]; 0.5% weight/volume): 4 (1000 to 10,000 colonies countable (thus 10,000 CFU/mL to 100,000 CFU/mL))
- B. subtillis growth grade, 30 day ([1]; 0.5% weight/volume): 4 (1000 to 10,000 colonies countable (thus 10,000 CFU/mL to 100,000 CFU/mL))
- B. subtillis growth grade, 3 day ([1]; 1.25% weight/volume): 2 (52 to 100 colonies counted (thus 520 to 1000 CFU/mL))
- B. subtillis growth grade, 14 day ([1]; 1.25% weight/volume): 2 (52 to 100 colonies counted (thus 520 to 1000 CFU/mL))
- B. subtillis growth grade, 30 day ([1]; 1.25% weight/volume): 2 (52 to 100 colonies counted (thus 520 to 1000 CFU/mL))
- B. subtillis growth grade, 3 day ([1]; 2.5% weight/volume): 0
- B. subtillis growth grade, 14 day ([1]; 2.5% weight/volume): 0
- B. subtillis growth grade, 30 day ([1]; 2.5% weight/volume): 0
- B. subtillis growth grade, 3 day ([1]; 5.0% weight/volume): 0
- B. subtillis growth grade, 14 day ([1]; 5.0% weight/volume): 0
- B. subtillis growth grade, 30 day ([1]; 5.0% weight/volume): 0
- S. epidermidis growth grade, 3 day ([2]; 0.5% weight/volume): 4 (1000 to 10,000 colonies countable (thus 10,000 CFU/mL to 100,000 CFU/mL))
- S. epidermidis growth grade, 13 day ([2]; 0.5% weight/volume): 3 (100 to 1000 colonies (thus 1000 to 10,000 CFU/mL))
- S. epidermidis growth grade, 30 day ([2]; 0.5% weight/volume): 4 (1000 to 10,000 colonies countable (thus 10,000 CFU/mL to 100,000 CFU/mL))
- S. epidermidis growth grade, 3 day ([2]; 1.25% weight/volume): 2 (52 to 100 colonies counted (thus 520 to 1000 CFU/mL))
- S. epidermidis growth grade, 13 day ([2]; 1.25% weight/volume): 1 (0 to 51 colonies counted (thus 10 to 510 CFU/mL based on 0.1-mL sample))
- S. epidermidis growth grade, 30 day ([2]; 1.25% weight/volume): 0
- S. epidermidis growth grade, 3 day ([2]; 2.5% weight/volume): 0
- S. epidermidis growth grade, 13 day ([2]; 2.5% weight/volume): 0
- S. epidermidis growth grade, 30 day ([2]; 2.5% weight/volume): 0
- S. epidermidis growth grade, 3 day ([2]; 5.0% weight/volume): 0
- S. epidermidis growth grade, 13 day ([2]; 5.0% weight/volume): 0
- S. epidermidis growth grade, 30 day ([2]; 5.0% weight/volume): 0
- Grade ([3]; 0.5% (wt/vol), 3 day): 4 (1000 to 10,000 colonies countable (thus 10,000 CFU/mL to 100,000 CFU/mL))
- Grade ([3]; 0.5% (wt/vol), 13 day): 4 (1000 to 10,000 colonies countable (thus 10,000 CFU/mL to 100,000 CFU/mL))
- Grade ([3]; 0.5% (wt/vol), 30 day): 4 (1000 to 10,000 colonies countable (thus 10,000 CFU/mL to 100,000 CFU/mL))
- Grade ([3]; 1.25% (wt/vol), 3 day): 4 (1000 to 10,000 colonies countable (thus 10,000 CFU/mL to 100,000 CFU/mL))
- Grade ([3]; 1.25% (wt/vol), 13 day): 4 (1000 to 10,000 colonies countable (thus 10,000 CFU/mL to 100,000 CFU/mL))
- Grade ([3]; 1.25% (wt/vol), 30 day): 4 (1000 to 10,000 colonies countable (thus 10,000 CFU/mL to 100,000 CFU/mL))
- Grade ([3]; 2.5% (wt/vol), 3 day): 4 (1000 to 10,000 colonies countable (thus 10,000 CFU/mL to 100,000 CFU/mL))
- Grade ([3]; 2.5% (wt/vol), 13 day): 3 (100 to 1000 colonies (thus 1000 to 10,000 CFU/mL))
- Grade ([3]; 2.5% (wt/vol), 30 day): 4 (1000 to 10,000 colonies countable (thus 10,000 CFU/mL to 100,000 CFU/mL))
- Grade ([3]; 5.0% (wt/vol), 3 day): 0
- Grade ([3]; 5.0% (wt/vol), 13 day): 0
- Grade ([3]; 5.0% (wt/vol), 30 day): 0
- P. vulgaris growth grade, 3 day ([4]; 0.5% weight/volume): 5 (More than 10,000 colonies estimated (thus more than 100,000 CFU/mL))
- P. vulgaris growth grade, 13 day ([4]; 0.5% weight/volume): 4 (1000 to 10,000 colonies countable (thus 10,000 CFU/mL to 100,000 CFU/mL))
- P. vulgaris growth grade, 30 day ([4]; 0.5% weight/volume): 4 (1000 to 10,000 colonies countable (thus 10,000 CFU/mL to 100,000 CFU/mL))
- P. vulgaris growth grade, 3 day ([4]; 1.25% weight/volume): 3 (100 to 1000 colonies (thus 1000 to 10,000 CFU/mL))
- P. vulgaris growth grade, 13 day ([4]; 1.25% weight/volume): 1 (0 to 51 colonies counted (thus 10 to 510 CFU/mL based on 0.1-mL sample))
- P. vulgaris growth grade, 30 day ([4]; 1.25% weight/volume): 3 (100 to 1000 colonies (thus 1000 to 10,000 CFU/mL))
- P. vulgaris growth grade, 3 day ([4]; 2.5% weight/volume): 4 (1000 to 10,000 colonies countable (thus 10,000 CFU/mL to 100,000 CFU/mL))
- P. vulgaris growth grade, 13 day ([4]; 2.5% weight/volume): 4 (1000 to 10,000 colonies countable (thus 10,000 CFU/mL to 100,000 CFU/mL))
- P. vulgaris growth grade, 30 day ([4]; 2.5% weight/volume): 4 (1000 to 10,000 colonies countable (thus 10,000 CFU/mL to 100,000 CFU/mL))
- P. vulgaris growth grade, 3 day ([4]; 5.0% weight/volume): 4 (1000 to 10,000 colonies countable (thus 10,000 CFU/mL to 100,000 CFU/mL))
- P. vulgaris growth grade, 13 day ([4]; 5.0% weight/volume): 4 (1000 to 10,000 colonies countable (thus 10,000 CFU/mL to 100,000 CFU/mL))
- P. vulgaris growth grade, 30 day ([4]; 5.0% weight/volume): 4 (1000 to 10,000 colonies countable (thus 10,000 CFU/mL to 100,000 CFU/mL))
- Grade ([5]; 0.5% (wt/vol), 3 day): 4 (1000 to 10,000 colonies countable (thus 10,000 CFU/mL to 100,000 CFU/mL))
- Grade ([5]; 0.5% (wt/vol), 14 day): 5 (More than 10,000 colonies estimated (thus more than 100,000 CFU/mL))
- Grade ([5]; 0.5% (wt/vol), 30 day): 5 (More than 10,000 colonies estimated (thus more than 100,000 CFU/mL))
- Grade ([5]; 1.25% (wt/vol), 3 day): 4 (1000 to 10,000 colonies countable (thus 10,000 CFU/mL to 100,000 CFU/mL))
- Grade ([5]; 1.25% (wt/vol), 14 day): 4 (1000 to 10,000 colonies countable (thus 10,000 CFU/mL to 100,000 CFU/mL))
- Grade ([5]; 1.25% (wt/vol), 30 day): 4 (1000 to 10,000 colonies countable (thus 10,000 CFU/mL to 100,000 CFU/mL))
- Grade ([5]; 2.5% (wt/vol), 3 day): 2 (52 to 100 colonies counted (thus 520 to 1000 CFU/mL))
- Grade ([5]; 2.5% (wt/vol), 14 day): 2 (52 to 100 colonies counted (thus 520 to 1000 CFU/mL))
- Grade ([5]; 2.5% (wt/vol), 30 day): 2 (52 to 100 colonies counted (thus 520 to 1000 CFU/mL))
- Grade ([5]; 5.0% (wt/vol), 3 day): 1 (0 to 51 colonies counted (thus 10 to 510 CFU/mL based on 0.1-mL sample))
- Grade ([5]; 5.0% (wt/vol), 14 day): 0
- Grade ([5]; 5.0% (wt/vol), 30 day): 0
